# Measured values reported in patent US12201643B2, “Mechanochemical dynamic for focal cancer treatment” (THE BOARD OF TRUSTEES OF THE UNIVERSITY OF ILLINOIS, priority 2021, dated 2025).
# What was measured:
# [1] = Arrhenius equation; cited from earlier work
# [2] = system: E0771 mouse breast cancer cells; assay type: cell-based
# Source text: (§1) B16F10 mouse skin melanoma cells were maintained in DMEM (Gibco) supplemented with 10% fetal bovine serum (FBS, Corning), penicillin and streptomycin (Thermo Fisher). B16F10 cells were a generous gift from Dr. Edward Roy at the University of Illinois at Urbana-Champaign. E0771 mouse breast cancer cells (CH3 BioSystems) were maintained in RPMI-1640 (Gibco) supplemented with 10% FBS (Corning), penicillin and streptomycin (Thermo Fisher). For free-radical challenge experiments, 0.05% trypsin dissociated cells were counted and 1×10^4 cells per well were seeded in cell culture-treated 6 well plates (Thermo Fisher) 24 hours before the start of the experiment. […] Cells were then incubated up to 72 hours without media change and counted every 24 hours. […] Staining solution was then replaced by PBS and the cells were imaged on an Olympus inverted fluorescence microscope with 4× objective and FITC filter set. […] Live cells positively stained by Calcein-AM were counted using FIJI (NIH) and averaged over 4 counting fields per well at each time point (FIG. 12). For each image, only the green channel was analyzed. […] Using “Analyze Particles,” the distinct white areas from size 20 (to exclude small artifacts and debris) to size infinity were counted. Cell counts were then compiled and analyzed in Microsoft Excel. […]
# [3] = system: B16F10 mouse skin melanoma cells; assay type: cell-based
# Source text: as §1
SMILES,activation energy Ea of azo group decomposition [1] [kcal/mol],pre-exponential factor A of azo group decomposition [1] [s⁻¹],lethal dosage (positive control) [2] [µM],lethal dosage (positive control) [3] [µM]
"CC(C#N)(CCC(=O)O)N=NC(C)(C#N)CCC(=O)O (stereo not shown) [ACVA, 4,4′-azobis (4-cyanovaleric acid)]",31.76,6.21e+15,,
"OO [H2O2, hydrogen peroxide]",,,~30,~50
